In US9034865B2, “Pyrido [4,3-B] indole and pyrido [3,4-B] indole derivatives and methods of use” (Medivation Technologies, Inc., priority 2010, dated 2015):

Key:
[1] = biological target: T1, human recombinant serotonin (5-Hydroxytryptamine) 5-HT7 receptor (Homo sapiens, UniProt P34969); test: Serotonin 5-HT7 radioligand binding ([3H]LSD); details: compound at 0.1 μM; read-out: Percentage inhibition of ligand binding, Serotonin (0.1 μM) 5-HT7
T1 construct: expressed in transfected cells; host or cells: CHO
Method: To evaluate in radioligand binding assays the activity of compounds of the invention, human recombinant serotonin (5-Hydroxytryptamine) 5-HT7 receptor expressed in Chinese hamster ovary (CHO) cells (Roth, B. et al, J. Pharmacol. Exp. Ther. 268:1403, 1994; Shen, Y. et al, J. Biol. Chem. 268:18200, 1993) in a modified Tris-HCl buffer (50 mM Tris-HCl, pH 7.4, 10 mM MgCl2, 0.5 mM EDTA) was used. Compounds of invention were incubated with 5.5 nM [^3H] Lysergic acid diethylamide (LSD) for 2 h at 25° C. Non-specific binding was estimated in the presence of 10 μM Serotonin (5-HT). Receptor proteins were filtered and washed, the filters were then counted to determine [^3H]LSD specifically bound. Compounds were screened at 1 μM or lower, using 1% DMSO as vehicle. Biochemical assay results are presented as the percent inhibition of specific binding in Table 4.

[2] = biological target: T2, human recombinant histamine H1 receptor (Homo sapiens, UniProt P35367); test: Histamine H1 radioligand binding ([3H]Pyrilamine); details: compound at 1 μM; 1.2 nM [3H]Pyrilamine; read-out: Binding data (Percentage inhibition) Histamine H1 (1 μM)
T2 construct: expressed in transfected cells; host or cells: CHO-K1
Method: To evaluate in radioligand binding assays the activity of compounds of the invention, human recombinant histamine H1 receptor expressed in Chinese hamster ovary (CHO) K1 cells (De Backer, M. et al, Biochem. Biophys. Res. Comm. 197(3):1601, 1993) in a modified Tris-HCl buffer (50 mM Tris-HCl, pH 7.4, 2 mM MgCl2, 100 mM NaCl, 250 mM Sucrose) was used. Compounds of the invention were incubated with 1.2 nM [^3H]Pyrilamine for 180 min at 25° C. Non-specific binding was estimated in the presence of 1 μM Pyrilamine. Receptor proteins were filtered and washed, the filters were then counted to determine [^3H]Pyrilamine specifically bound. Compounds were screened at 1 μM or lower, using 1% DMSO as vehicle. Biochemical assay results are presented as the percent inhibition of specific binding in Table 2.

[3] = biological target: T3, human recombinant serotonin (5-Hydroxytryptamine) 5-HT6 receptor (Homo sapiens, UniProt P50406); test: Serotonin 5-HT6 radioligand binding ([3H]LSD); details: compound at 0.1 μM; read-out: Percentage inhibition of ligand binding, Serotonin (0.1 μM) 5-HT6
T3 construct: expressed in transfected cells; host or cells: HeLa
Method: To evaluate in radioligand binding assays the activity of compounds of the invention, human recombinant serotonin (5-Hydroxytryptamine) 5-HT6 receptor expressed in human HeLa cells (Monsma, F. Jr. et al, Mol. Pharmacol. 43:320, 1993) in a modified Tris-HCl buffer (50 mM Tris-HCl, pH 7.4, 150 mM NaCl, 2 mM Ascorbic Acid, 0.001% BSA) was used. Compounds of the invention were incubated with 1.5 nM [3H]Lysergic acid diethylamide (LSD) for 120 min at 37° C. Non-specific binding was estimated in the presence of 5 μM Serotonin (5-HT). Receptor proteins were filtered and washed, the filters were then counted to determine [3H]LSD specifically bound. Compounds were screened at 1 μM or lower, using 1% DMSO as vehicle. Biochemical assay results are presented as the percent inhibition of specific binding in Table 4.

[4] = biological target: T4, human recombinant serotonin (5-Hydroxytryptamine) 5-HT2C receptor (Homo sapiens, UniProt P28335); test: Serotonin 5-HT2C radioligand binding ([3H]Mesulergine); details: compound at 0.1 μM; read-out: Percentage inhibition of ligand binding, Serotonin (0.1 μM) 5-HT2C
T4 construct: expressed in transfected cells; host or cells: CHO-K1
T4 sequence (P28335 33-458): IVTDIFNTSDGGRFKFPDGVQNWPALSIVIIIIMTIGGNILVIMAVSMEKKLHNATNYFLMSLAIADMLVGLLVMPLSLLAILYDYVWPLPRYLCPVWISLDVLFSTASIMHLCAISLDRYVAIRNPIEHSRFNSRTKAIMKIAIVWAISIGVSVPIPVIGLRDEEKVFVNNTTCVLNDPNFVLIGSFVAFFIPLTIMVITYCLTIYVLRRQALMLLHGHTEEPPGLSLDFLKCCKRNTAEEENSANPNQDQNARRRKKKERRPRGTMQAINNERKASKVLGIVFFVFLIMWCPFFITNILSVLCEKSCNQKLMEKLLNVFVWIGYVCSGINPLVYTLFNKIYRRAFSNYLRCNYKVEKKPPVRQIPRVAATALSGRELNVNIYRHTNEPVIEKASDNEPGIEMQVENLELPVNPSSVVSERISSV
Method: To evaluate in radioligand binding assays the activity of compounds of the invention, human recombinant serotonin (5-Hydroxytryptamine) 5-HT2C receptor expressed in Chinese hamster ovary (CHO) K1 cells (Wolf, W. et al, J. Neurochem. 69:1449, 1997) in a modified Tris-HCl buffer (50 mM Tris-HCl, pH 7.4, 0.1% Ascorbic Acid, 10 μM Pargyline) was used. Compounds of the invention were incubated with 1 nM [^3H]Mesulergine for 60 min at 25° C. Non-specific binding was estimated in the presence of 1 μM Mianserin. Receptor proteins were filtered and washed, the filters were then counted to determine [^3H]Mesulergine specifically bound. Compounds were screened at 1 μM or lower, using 1% DMSO as vehicle. Biochemical assay results are presented as the percent inhibition of specific binding in Table 4.

[5] = biological target: T5, human recombinant serotonin (5-Hydroxytryptamine) 5-HT2A receptor (Homo sapiens, UniProt P28223); test: Serotonin 5-HT2A radioligand binding ([3H]Ketanserin); details: compound at 0.1 μM; read-out: Percentage inhibition of ligand binding, Serotonin (0.1 μM) 5-HT2A
T5 construct: expressed in transfected cells; host or cells: CHO-K1
Method: To evaluate in radioligand binding assays the activity of compounds of the invention, human recombinant serotonin (5-Hydroxytryptamine) 5-HT2A receptor expressed in Chinese hamster ovary (CHO) K1 cells (Bonhaus, D. et al, Br. J. Pharmacol. 115:622, 1995; Saucier, C. et al, J. Neurochem. 68:1998, 1997) in a 50 mM Tris-HCl buffer, pH 7.4, was used. Compounds of the invention were incubated with 0.5 nM [^3H]Ketanserin for 60 min at 25° C. Non-specific binding was estimated in the presence of 1 μM Mianserin. Receptor proteins were filtered and washed, the filters were then counted to determine [^3H]Ketanserin specifically bound. Compounds were screened at 1 μM or lower, using 1% DMSO as vehicle. Biochemical assay results are presented as the percent inhibition of specific binding in Table 4.

[6] = biological target: T6, human recombinant dopamine D2L receptor (Homo sapiens, UniProt P14416); test: Dopamine D2L radioligand binding ([3H]Spiperone); details: compound at 1 μM; read-out: Percentage inhibition of ligand binding, Dopamine (1 μM) D2L
T6 construct: expressed in transfected cells; host or cells: CHO
Method: To evaluate in radioligand binding assays the activity of compounds of the invention, human recombinant dopamine D2L receptor expressed in Chinese hamster ovary (CHO) cells (Grandy, D. et al, Proc. Natl. Acad. Sci. USA. 86:9762, 1989; Hayes, G. et al, Mol. Endocrinol. 6:920, 1992) in a modified Tris-HCl buffer (50 mM Tris-HCl, pH 7.4, 1.4 mM Ascorbic Acid, 0.001% BSA, 150 mM NaCl) was used. Compounds of the invention were incubated with 0.16 nM [^3H]Spiperonefor 120 min at 25° C. Non-specific binding was estimated in the presence of 10 μM Haloperidol. Receptor proteins were filtered and washed, the filters were then counted to determine [^3H]Spiperone specifically bound. Compounds were screened at 1 μM or lower, using 1% DMSO as vehicle. Biochemical assay results are presented as the percent inhibition of specific binding in Table 3.

T3 sequence (P50406 whole entry): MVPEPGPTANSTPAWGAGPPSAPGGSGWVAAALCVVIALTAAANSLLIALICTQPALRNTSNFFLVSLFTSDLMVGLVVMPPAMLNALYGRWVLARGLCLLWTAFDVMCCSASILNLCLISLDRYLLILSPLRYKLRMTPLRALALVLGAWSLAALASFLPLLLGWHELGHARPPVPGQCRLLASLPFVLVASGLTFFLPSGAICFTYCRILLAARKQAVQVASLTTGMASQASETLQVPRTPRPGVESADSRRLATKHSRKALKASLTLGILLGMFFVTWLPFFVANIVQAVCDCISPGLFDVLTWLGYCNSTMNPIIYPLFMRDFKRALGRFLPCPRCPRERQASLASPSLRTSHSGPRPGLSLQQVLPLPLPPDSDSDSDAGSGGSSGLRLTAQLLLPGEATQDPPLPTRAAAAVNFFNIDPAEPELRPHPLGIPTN
T2 sequence (P35367 whole entry): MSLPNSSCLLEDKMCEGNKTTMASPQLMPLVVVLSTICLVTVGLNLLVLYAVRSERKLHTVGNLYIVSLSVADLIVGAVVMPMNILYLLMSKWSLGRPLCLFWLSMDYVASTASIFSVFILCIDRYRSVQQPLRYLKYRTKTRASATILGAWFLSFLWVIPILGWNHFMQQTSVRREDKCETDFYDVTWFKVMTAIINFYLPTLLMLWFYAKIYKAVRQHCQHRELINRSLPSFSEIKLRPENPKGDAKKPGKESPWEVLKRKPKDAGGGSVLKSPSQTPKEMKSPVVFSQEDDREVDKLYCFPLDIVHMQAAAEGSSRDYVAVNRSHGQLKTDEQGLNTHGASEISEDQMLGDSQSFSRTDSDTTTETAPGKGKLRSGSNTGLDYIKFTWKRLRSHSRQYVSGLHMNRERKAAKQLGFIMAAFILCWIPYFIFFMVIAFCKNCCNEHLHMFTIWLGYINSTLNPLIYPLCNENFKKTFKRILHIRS
T1 sequence (P34969 whole entry): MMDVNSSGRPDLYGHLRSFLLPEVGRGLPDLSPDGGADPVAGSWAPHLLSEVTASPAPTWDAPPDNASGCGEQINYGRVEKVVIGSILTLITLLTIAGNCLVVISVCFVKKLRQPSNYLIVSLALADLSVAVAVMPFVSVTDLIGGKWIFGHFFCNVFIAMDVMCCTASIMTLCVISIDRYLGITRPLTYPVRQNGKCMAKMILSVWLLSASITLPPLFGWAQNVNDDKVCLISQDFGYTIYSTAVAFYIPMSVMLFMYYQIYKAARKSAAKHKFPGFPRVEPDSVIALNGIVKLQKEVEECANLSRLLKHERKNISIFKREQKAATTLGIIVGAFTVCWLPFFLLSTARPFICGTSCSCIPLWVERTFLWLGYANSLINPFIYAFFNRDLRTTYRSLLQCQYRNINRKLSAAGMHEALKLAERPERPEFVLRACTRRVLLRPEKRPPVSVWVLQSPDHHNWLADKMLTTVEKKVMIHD
T6 sequence (P14416 whole entry): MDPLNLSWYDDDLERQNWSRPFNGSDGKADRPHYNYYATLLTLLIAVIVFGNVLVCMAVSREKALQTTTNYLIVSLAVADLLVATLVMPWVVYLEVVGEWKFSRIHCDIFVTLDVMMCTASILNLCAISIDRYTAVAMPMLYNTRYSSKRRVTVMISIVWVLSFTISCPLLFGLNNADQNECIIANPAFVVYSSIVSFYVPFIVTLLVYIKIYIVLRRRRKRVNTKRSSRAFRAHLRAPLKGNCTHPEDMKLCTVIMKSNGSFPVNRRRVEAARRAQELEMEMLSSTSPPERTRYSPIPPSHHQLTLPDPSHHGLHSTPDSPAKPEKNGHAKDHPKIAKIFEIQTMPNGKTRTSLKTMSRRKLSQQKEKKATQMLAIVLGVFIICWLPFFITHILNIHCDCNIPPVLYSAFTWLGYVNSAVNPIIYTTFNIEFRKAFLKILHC
T5 sequence (P28223 whole entry): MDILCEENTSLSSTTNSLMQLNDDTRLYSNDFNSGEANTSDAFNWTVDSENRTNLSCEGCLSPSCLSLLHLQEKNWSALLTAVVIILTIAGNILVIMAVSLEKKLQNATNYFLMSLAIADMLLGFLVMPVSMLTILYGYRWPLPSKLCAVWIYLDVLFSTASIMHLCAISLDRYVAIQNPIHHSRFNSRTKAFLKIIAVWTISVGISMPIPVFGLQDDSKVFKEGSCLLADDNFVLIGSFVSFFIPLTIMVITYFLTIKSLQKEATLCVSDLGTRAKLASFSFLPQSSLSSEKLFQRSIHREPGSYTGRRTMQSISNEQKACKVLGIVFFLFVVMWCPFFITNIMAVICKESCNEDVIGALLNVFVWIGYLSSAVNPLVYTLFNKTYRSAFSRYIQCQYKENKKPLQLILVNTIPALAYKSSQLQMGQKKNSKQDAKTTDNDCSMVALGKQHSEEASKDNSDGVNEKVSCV

| SMILES | inhibition at 0.1 µM [1] [%] | inhibition at 1 µM [2] [%] | inhibition at 0.1 µM [3] [%] | inhibition at 0.1 µM [4] [%] | inhibition at 0.1 µM [5] [%] | inhibition at 1 µM [6] [%] |
| --- | --- | --- | --- | --- | --- | --- |
| Cc1cc(C#Cc2ccncc2)c2[nH]c3c(c2c1)CN(C)CC3 [Compound 5] | 45 | 17 | 30 | 45 | 54 | 10 |
| CN1CCc2[nH]c3c(NCc4ccncc4)cccc3c2C1 [Compound 4] | -10 | 15 | 2 | 7 | -7 | 5 |
| Cc1cc(CCc2ccc(C)nc2)c2[nH]c3c(c2c1)CN(C)CC3 [Compound 2] | 17 | 58 | 4 | 36 | 6 | 6 |
| Cc1cc(C#Cc2ccc(C)nc2)c2[nH]c3c(c2c1)CN(C)CC3 [Compound 6, 2,8-dimethyl-6-((6-methylpyridin-3-yl)ethynyl)-2,3,4,5-tetrahydro-1H-pyrido[4,3-b]indole] | 43 | 16 | 24 | 55 | 41 | 7 |
| CN1CCc2[nH]c3c(NCc4ccccc4)cccc3c2C1 [Compound 3] | 14 | 14 | 13 | 41 | 40 | 19 |
| CN1CCc2[nH]c3c(N(C)Cc4ccccc4)cccc3c2C1 [Compound 1, benzyl-methyl-(2-methyl-2,3,4,5-tetrahydro-1H-pyrido[4,3-b]indol-6-yl)-amine] | 9 | 6 | 44 | 55 | 73 | 21 |
